Bounds are passed on as bounds.

What all share (assay type): cell-based, murine and human
What all share (settings): GAL4-PPAR LBD chimera

One assay addresses T1, PPAR-alpha (UniProt Q07869).
T1 sequence (Q07869 1-468): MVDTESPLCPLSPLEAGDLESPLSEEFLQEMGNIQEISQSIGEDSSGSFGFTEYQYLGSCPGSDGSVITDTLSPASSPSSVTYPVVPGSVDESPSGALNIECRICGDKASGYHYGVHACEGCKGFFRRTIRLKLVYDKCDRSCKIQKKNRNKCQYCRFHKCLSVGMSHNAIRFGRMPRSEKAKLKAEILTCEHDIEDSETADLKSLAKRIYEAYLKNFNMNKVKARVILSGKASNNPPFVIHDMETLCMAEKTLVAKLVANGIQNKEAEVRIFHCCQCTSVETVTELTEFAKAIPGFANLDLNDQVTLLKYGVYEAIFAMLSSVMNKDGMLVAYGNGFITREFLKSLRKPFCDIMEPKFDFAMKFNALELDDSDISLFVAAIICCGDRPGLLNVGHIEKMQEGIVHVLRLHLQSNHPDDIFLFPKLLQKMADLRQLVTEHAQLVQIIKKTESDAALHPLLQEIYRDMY
Briefly: PPAR-alpha transactivation assay (GAL4 chimera, luciferase reporter) in CV-1 cells. A digest of the protocol: (§1)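 CV-1 cells transiently transfected with murine or human PPAR-alpha, -gamma or -delta ligand-binding domain fused to GAL4 DNA-binding domain plus a GAL4-site luciferase reporter. After replating in phenol-red-free DME with 5% delipidated calf serum, cells were exposed to compound 20-24 h; luciferase read-out gave EC50.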

Another assay addresses T2, PPAR-delta (UniProt Q03181).
T2 sequence (Q03181 1-441): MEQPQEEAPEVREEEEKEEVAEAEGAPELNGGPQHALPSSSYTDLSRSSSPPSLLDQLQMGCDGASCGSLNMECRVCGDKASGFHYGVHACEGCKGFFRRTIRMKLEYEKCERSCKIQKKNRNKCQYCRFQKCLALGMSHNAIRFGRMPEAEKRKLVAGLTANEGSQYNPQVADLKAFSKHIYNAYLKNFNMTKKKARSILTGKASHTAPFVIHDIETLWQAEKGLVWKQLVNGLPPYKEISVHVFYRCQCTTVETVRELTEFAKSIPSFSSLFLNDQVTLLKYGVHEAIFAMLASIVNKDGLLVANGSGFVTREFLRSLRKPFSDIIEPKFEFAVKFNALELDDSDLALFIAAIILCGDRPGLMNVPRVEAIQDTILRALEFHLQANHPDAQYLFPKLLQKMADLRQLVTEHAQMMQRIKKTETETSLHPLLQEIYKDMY
Nature of the assay: PPAR-delta transactivation assay (GAL4 chimera, luciferase reporter) in CV-1 cells. A digest of the protocol:
as §1
(Reporter assays use an easily measured gene product as a stand-in for the process of interest.)

For a further assay, the target named is T3, PPAR-gamma (UniProt P37231).
T3 sequence (P37231 1-505): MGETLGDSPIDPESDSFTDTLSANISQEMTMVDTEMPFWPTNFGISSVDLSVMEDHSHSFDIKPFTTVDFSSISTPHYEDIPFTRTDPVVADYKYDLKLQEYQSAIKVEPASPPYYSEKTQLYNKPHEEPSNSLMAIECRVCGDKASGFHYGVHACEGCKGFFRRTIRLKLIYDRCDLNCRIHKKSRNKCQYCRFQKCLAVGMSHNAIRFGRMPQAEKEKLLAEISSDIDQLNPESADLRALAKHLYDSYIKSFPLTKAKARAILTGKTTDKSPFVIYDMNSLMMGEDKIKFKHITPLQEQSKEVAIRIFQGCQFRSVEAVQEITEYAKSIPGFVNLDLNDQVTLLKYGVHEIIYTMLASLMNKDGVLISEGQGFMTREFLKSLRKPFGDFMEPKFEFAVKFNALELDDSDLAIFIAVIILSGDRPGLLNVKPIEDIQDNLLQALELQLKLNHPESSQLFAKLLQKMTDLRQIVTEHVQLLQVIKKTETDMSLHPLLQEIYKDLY
Nature of the assay: PPAR-gamma transactivation assay (GAL4 chimera, luciferase reporter) in CV-1 cells. In short, it runs like this: as §1

Usually EC50 stands for the concentration that produces a half-maximal response. Lower therefore signals higher potency in that assay. Regarding `COC(=O)[C@@H]1CN(S(=O)(=O)c2ccc3c(c2)C(C(=O)O)CC3)CCN1c1ccc(C(F)(F)F)cn1` (stereo partly drawn) [Example 40, (S)-4-(3-carboxy-indane-5-sulfonyl)-1-(5-trifluoromethyl-pyridin-2-yl)-piperazine-2-carboxylic acid methyl ester], the concentration for a half-maximal effect (EC50) on PPAR-alpha, on PPAR-delta and at PPAR-gamma was under 5 µM throughout.
`O=C(O)Cc1csc2ccc(S(=O)(=O)N3CCN(c4ccc(C(F)(F)F)cc4)CC3)cc12` [Example 41, {5-[4-(4-trifluoromethyl-phenyl)-piperazine-1-sulfonyl]-benzo[b]thiophen-3-yl}-acetic acid]: the EC50 at PPAR-alpha is 5 to 100 µM; on PPAR-delta, under 5 µM; at PPAR-gamma, 5 to 100 µM.
Take `CC1CN(c2ccc(C(F)(F)F)cn2)CCN1S(=O)(=O)c1ccc2scc(CC(=O)O)c2c1` (stereo not drawn) [Example 42, {5-[2-methyl-4-(5-trifluoromethyl-pyridin-2-yl)-piperazine-1-sulfonyl]-benzo[b]thiophen-3-yl}-acetic acid]: the EC50 at PPAR-alpha is 5 to 100 µM; at PPAR-delta, under 5 µM; on PPAR-gamma, 5 to 100 µM.
For the compound `C[C@@H]1CN(c2ccc(C(F)(F)F)cn2)C[C@H](C)N1S(=O)(=O)c1ccc2scc(CC(=O)O)c2c1` [Example 43, {5-[2,6-dimethyl-4-(5-trifluoromethyl-pyridin-2-yl)-piperazine 1-sulfonyl]-benzo[b]thiophen-3-yl}-acetic acid], the EC50 on PPAR-alpha was over 100 µM; at PPAR-delta, under 5 µM; on PPAR-gamma it was 5 to 100 µM.
For `CC1CN(S(=O)(=O)c2ccc3scc(CC(=O)O)c3c2)C(C)CN1c1ccc(C(F)(F)F)cn1` (stereo not drawn) [Example 44, {5-[2,5-dimethyl-4-(5-trifluoromethyl-pyridin-2-yl)-piperazine-1-sulfonyl]-benzo[b]thiophen-3-yl}-acetic acid], in that order: over 100 µM, under 5 µM and 5 to 100 µM.
For `O=C(O)C1CCc2ccc(S(=O)(=O)N3CCN(c4ccc(C(F)(F)F)cc4F)CC3)cc21` (stereo not drawn) [Example 45, 6-[4-(2-fluoro-4-trifluoromethyl-phenyl)-piperazine-1-sulfonyl]-indan-1-carboxylic acid], in that order: under 5 µM, under 5 µM and under 5 µM.
With `O=C(O)C1CCc2ccc(S(=O)(=O)N3CCN(c4ccc(Cl)c(Cl)c4)CC3)cc21` (stereo not drawn) [Example 46, 6-[4-(3,4-dichloro-phenyl)-piperazine-1-sulfonyl]-indan-1-carboxylic acid], the EC50 on PPAR-alpha, at PPAR-delta and at PPAR-gamma was under 5 µM in each case.
With `O=C(O)Cc1csc2ccc(S(=O)(=O)N3CCN(c4ccc(C(F)(F)F)cc4F)CC3)cc12` [Example 47, {5-[4-(2-fluoro-4-trifluoromethyl-phenyl)-piperazine-1-sulfonyl]-benzo[b]thiophen-3-yl}-acetic acid], the EC50 at PPAR-alpha, on PPAR-delta and at PPAR-gamma was under 5 µM in each case.
Turning to `O=C(O)Cc1csc2ccc(S(=O)(=O)N3CCN(c4ccc(C(F)(F)F)c(F)c4)CC3)cc12` [Example 48, {5-[4-(3-fluoro-4-trifluoromethyl-phenyl)-piperazine-1-sulfonyl]-benzo[b]thiophen-3-yl}-acetic acid], the concentration giving a half-maximal response (EC50) on PPAR-alpha, on PPAR-delta and at PPAR-gamma was under 5 µM in each case.
Turning to `C[C@@H]1CN(c2ccc(Cl)c(Cl)c2)C[C@H](C)N1S(=O)(=O)c1ccc2c(c1)C(C(=O)O)CC2` (stereo partly drawn) [Example 49, 6-[4-(3,4-dichloro-phenyl)-2,6-cis-dimethyl-piperazine-1-sulfonyl]-indan-1-carboxylic acid], the EC50 on PPAR-alpha was under 5 µM; on PPAR-delta it was under 5 µM; at PPAR-gamma, 5 to 100 µM.
With `C[C@@H]1CN(c2ccc(C(F)(F)F)c(Cl)c2)C[C@H](C)N1S(=O)(=O)c1ccc2c(c1)C(C(=O)O)CC2` (stereo partly drawn) [Example 50, 6-[4-(3-Chloro-4-trifluoromethyl-phenyl)-cis-2,6-dimethyl-piperazine-1-sulfonyl]-indan-1-carboxylic acid], the results for the EC50 at PPAR-alpha, at PPAR-delta and on PPAR-gamma were 5 to 100 µM, under 5 µM and 5 to 100 µM, respectively.
Regarding `C[C@@H]1CN(c2ccc(OC(F)(F)F)cc2)C[C@H](C)N1S(=O)(=O)c1ccc2c(c1)C(C(=O)O)CC2` (stereo partly drawn) [Example 51, 6-[2,6-cis-dimethyl-4-(4-trifluoromethoxy-phenyl)-piperazine-1-sulfonyl]-indan-1-carboxylic acid], the values for the EC50 at PPAR-alpha, on PPAR-delta and at PPAR-gamma were under 5 µM, under 5 µM and 5 to 100 µM, respectively.
On to `C[C@H]1CN(S(=O)(=O)c2ccc3c(c2)C(C(=O)O)CC3)CCN1c1ccc(Cl)c(Cl)c1` (stereo partly drawn) [Example 52, 6-[4-(3,4-dichloro-phenyl)-3-(S)-methyl-piperazine-1-sulfonyl]-indan-1-carboxylic acid], for which the EC50 on PPAR-alpha, on PPAR-delta and on PPAR-gamma was under 5 µM each time.
For the compound `C[C@H]1CN(S(=O)(=O)c2ccc3c(c2)C(C(=O)O)CC3)CCN1c1ccc(OC(F)(F)F)cc1` (stereo partly drawn) [Example 53, 6-[3-(S)-methyl-4-(4-trifluoromethoxy-phenyl)-piperazine-1-sulfonyl]-indan-1-carboxylic acid], the 50% effective concentration (EC50) at PPAR-alpha, on PPAR-delta and at PPAR-gamma was under 5 µM throughout.
`C[C@H]1CN(S(=O)(=O)c2ccc3c(c2)C(C(=O)O)CC3)CCN1c1ccc(C(F)(F)F)c(F)c1` (stereo partly drawn) [Example 54, 6-[4-(3-Fluoro-4-trifluoromethyl-phenyl)-3-(S)-Methyl-piperazine-1-sulfonyl]-indan-1-carboxylic acid]: the EC50 on PPAR-alpha, at PPAR-delta and at PPAR-gamma was under 5 µM in each case.
For `C[C@H]1CN(S(=O)(=O)c2ccc3c(c2)C(C(=O)O)CC3)CCN1c1ccc(C(F)(F)F)cn1` (stereo partly drawn) [Example 55], the EC50 on PPAR-alpha, on PPAR-delta and on PPAR-gamma was under 5 µM in each case.
Regarding `CCC1CN(c2ccc(C(F)(F)F)c(Cl)c2)CCN1S(=O)(=O)c1ccc2c(c1)C(C(=O)O)CC2` (stereo not drawn) [Example 56, 6-[4-(3-chloro-4-trifluoromethyl-phenyl)-2-ethyl-piperazine-1-sulfonyl]-indan-1carboxylic acid], the EC50 on PPAR-alpha, at PPAR-delta and at PPAR-gamma was under 5 µM in each case.
As for `CCC1CN(c2ccc(OC(F)(F)F)cc2)CCN1S(=O)(=O)c1ccc2c(c1)C(C(=O)O)CC2` (stereo not drawn) [Example 57, 6-[2-ethyl-4-(4-trifluoromethoxy-phenyl)-piperazine-1-sulfonyl]-indan-1-carboxylic acid], the EC50 at PPAR-alpha, on PPAR-delta and on PPAR-gamma was under 5 µM in each case.
In the case of `CCC1CN(c2ccc(Cl)c(Cl)c2)CCN1S(=O)(=O)c1ccc2c(c1)C(C(=O)O)CC2` (stereo not drawn) [Example 58, 6-[4-(3,4-Dichloro-phenyl)-2-ethyl-piperazine-1-sulfonyl]-indan-1-carboxylic acid], the EC50 on PPAR-alpha was under 5 µM; on PPAR-delta it was under 5 µM; on PPAR-gamma, 5 to 100 µM.
For the compound `CCC1CN(c2ccc(C(F)(F)F)c(F)c2)CCN1S(=O)(=O)c1ccc2c(c1)C(C(=O)O)CC2` (stereo not drawn) [Example 59, 6-[2-Ethyl-4-(3-fluoro-4-trifluoromethyl-phenyl)-piperazine-1-sulfonyl]-indan-1-carboxylic acid], the EC50 on PPAR-alpha was under 5 µM; at PPAR-delta, under 5 µM; on PPAR-gamma, 5 to 100 µM.

Values taken from patent US7517884B2 (Kalypsys Inc., priority 1998, dated 2009).
